Holding throughout (format): biochemical
Assay [1] addresses Glycogen Synthase Kinase 3 (GSK-3) (Homo sapiens, UniProt P49841). Briefly: GSK-3 inhibition assay (standard coupled enzyme assay). The conditions noted are these: 60 nM GSK-3, 10 μM ATP; read-out: GSK-3 Inhibitory Activity (Ki rating A-C). The method, then: Compounds were screened in the following manner for their ability to inhibit Glycogen Synthase Kinase 3 (GSK-3) using a standard coupled enzyme assay (Fox et al (1998) Protein Sci 7, 2249). To an assay stock buffer solution containing 0.1M HEPES 7.5, 10 mM MgCl2, 25 mM NaCl, 2.5 mM phosphoenolpyruvate, 300 μM NADH, 1 mM DTT, 30 μg/mL pyruvate kinase, 10 μg/mL lactate dehydrogenase, 300 μM peptide (HSSPHQp-SEDEEE, American Peptide, Sunnyvale, Calif.), and 60 nM GSK-3, was added a 30 μM solution of the compound in DMSO and the resulting mixture incubated at 30° C. for 5 min. The reaction was initiated by the addition of 10 μM ATP. The rates of reaction were obtained by monitoring absorbance at 340 nm over a 5 minute read time at 30° C. using a Molecular Devices plate reader (Sunnyvale, Calif.). The IC50 was determined from the rate data as a function of inhibitor concentration.

Assay [2] addresses T1, Lck kinase purified from bovine thymus (Bos taurus, UniProt Q3ZCM0).
T1 construct: Lck kinase purified from bovine thymus; purchased Upstate Biotechnology 14-106; host or cells: bovine thymus (tissue-purified)
Briefly: Lck inhibition assay (33P incorporation into poly Glu-Tyr). To be noted: for Ki: 10 μM ATP, read-out: Activity in the Lck Inhibition Assay (Ki rating A-C). In short, it runs like this: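 Filter-binding radiometric assay of 33P transfer from ATP to poly Glu-Tyr (4:1, 5 mg/ml) by bovine thymus Lck in 0.05 M HEPES pH 7.6, 10 mM MgCl2, 2 mM DTT, 0.25 mg/ml BSA, 10 μM ATP. After 10 min at 30° C, reaction started with 33P-ATP, run 20 min, quenched with TCA; filter-bound radioactivity counted by scintillation.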

A further assay concerns the target CDK-2/Cyclin A (Homo sapiens, UniProt P24941). Description: CDK2 inhibition assay (standard coupled enzyme assay). The conditions noted are these: 25 nM CDK-2/Cyclin A; read-out: CDK2 Inhibitory Activity (Ki rating A-C). How it is done: Compounds were screened in the following manner for their ability to inhibit CDK2 using a standard coupled enzyme assay (Fox et al (1998) Protein Sci 7, 2249).
To an assay stock buffer solution containing 0.1M HEPES 7.5, 10 mM MgCl2, 1 mM DTT, 25 mM NaCl, 2.5 mM phosphoenolpyruvate, […], […], […], […], and 100 μM peptide ([…], American Peptide, Sunnyvale, Calif.) was added a DMSO solution of a compound of the present invention to a final concentration of 30 μM. The resulting mixture was incubated at 30° C. for 10 minutes.
The reaction was initiated by the addition of 10 μL of CDK-2/Cyclin A stock solution to give a final concentration of 25 nM in the assay. The rates of reaction were obtained by monitoring absorbance at 340 nm over a 5-minute read time at 30° C. using a BioRad Ultramark plate reader (Hercules, Calif.). The Ki values were determined from the rate data as a function of inhibitor concentration.

The target of a further assay is T2, activated JNK3 (Homo sapiens, UniProt P53779).
T2 construct: One such construct encodes amino acid residues Ser40-Glu402 of JNK3α1 and is preceded by Met and Gly residues; Met-Gly (initiator methionine and added glycine) (N); made in house; host or cells: E. coli BL21 (DE3)
Description: JNK inhibition assay (spectrophotometric coupled-enzyme assay). To be noted: for Ki: 10 nM activated JNK3, 10 μM ATP, read-out: Activity in the JNK3 Inhibition Assay (Ki rating A-C). The source says:
A BLAST search of the EST database using the published JNK3α1 cDNA as a query identified an EST clone (#632588) that contained the entire coding sequence for human JNK3α1. Polymerase chain reactions (PCR) using pfu polymerase (Strategene) were used to introduce restriction sites into the cDNA for cloning into the pET-15B expression vector at the NcoI and BamHI sites. The protein was expressed in E. coli. […] This truncation corresponds to Ser 2 of JNK1 and JNK2 proteins, and is preceded by a methionine (initiation) and a glycine residue. The glycine residue was added in order to introduce an NcoI site for cloning into the expression vector. In addition, systematic C-terminal truncations were performed by PCR to identify a construct that give rise to diffraction-quality crystals.
5 mg of JNK3 was diluted to 0.5 mg/ml in 50 mM HEPES buffer, pH 7.5, containing 100 mM NaCl, 5 mM DTT, 20 mM MgCl2 and 1 mM ATP. GST-MKK7(DD) was added at a molar ratio of 1:2.5 GST-MKK7:JNK3. After incubation for 30 minutes at 25° C., the reaction mixture was concentrated 5-fold by ultrafiltration in a Centriprep-30 (Amicon, Beverly, Mass.), diluted to 10 ml and an additional 1 mM ATP added. This procedure was repeated three times to remove ADP and replenish ATP. The final addition of ATP was 5 mM and the mixture incubated overnight at 4° C.
The activated JNK3/GST-MKK7(DD) reaction mixture was exchanged into 50 mM HEPES buffer, pH 7.5, containing 5 mM DTT and 5% glycerol (w/v) by dialysis or ultrafiltration. The reaction mixture was adjusted to 1.1 M potassium phosphate, pH 7.5, and purified by hydrophobic interaction chromatography (at 25° C.) using a Rainin Hydropore column. […] Activated JNK3 (i.e. doubly phosphorylated JNK3) was stored at −70° C. at 0.25-1 mg/ml.
Compounds were assayed for the inhibition of JNK3 by a spectrophotometric coupled-enzyme assay. In this assay, a fixed concentration of activated JNK3 (10 nM) was incubated with various concentrations of a potential inhibitor dissolved in DMSO for 10 minutes at 30° C. in a buffer containing 0.1 M HEPES buffer, pH 7.5, containing 10 mM MgCl2, 2.5 mM phosphoenolpyruvate, 200 μM NADH, 150 μg/mL pyruvate kinase, 50 μg/mL lactate dehydrogenase, and 200 μM EGF receptor peptide. […] The reaction was initiated by the addition of 10 μM ATP and the assay plate is inserted into the spectrophotometer's assay plate compartment that was maintained at 30° C. The decrease of absorbance at 340 nm was monitored as a function of time. The rate data as a function of inhibitor concentration was fitted to competitive inhibition kinetic model to determine the Ki.

These results are taken from patent US6949544B2, “Inhibitors of c-Jun N-terminal kinases (JNK) and other protein kinases” (Vertex Pharmaceuticals Incorporated, priority 2001, dated 2005).

The structures appear in SMILES notation. Some results are limits rather than exact numbers.

Sequence of Glycogen Synthase Kinase 3 (GSK-3) (P49841 whole entry): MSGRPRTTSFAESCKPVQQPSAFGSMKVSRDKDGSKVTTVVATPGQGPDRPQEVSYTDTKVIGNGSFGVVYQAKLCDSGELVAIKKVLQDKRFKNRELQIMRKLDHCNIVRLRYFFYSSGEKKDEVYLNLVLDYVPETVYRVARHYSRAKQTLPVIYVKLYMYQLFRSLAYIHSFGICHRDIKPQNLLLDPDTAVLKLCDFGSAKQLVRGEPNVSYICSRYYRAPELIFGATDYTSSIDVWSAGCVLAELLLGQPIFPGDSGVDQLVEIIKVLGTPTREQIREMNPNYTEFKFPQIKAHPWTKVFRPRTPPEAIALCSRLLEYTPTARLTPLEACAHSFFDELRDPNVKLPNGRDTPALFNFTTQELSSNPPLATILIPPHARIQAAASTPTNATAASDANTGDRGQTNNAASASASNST
T2 sequence (P53779 40-402): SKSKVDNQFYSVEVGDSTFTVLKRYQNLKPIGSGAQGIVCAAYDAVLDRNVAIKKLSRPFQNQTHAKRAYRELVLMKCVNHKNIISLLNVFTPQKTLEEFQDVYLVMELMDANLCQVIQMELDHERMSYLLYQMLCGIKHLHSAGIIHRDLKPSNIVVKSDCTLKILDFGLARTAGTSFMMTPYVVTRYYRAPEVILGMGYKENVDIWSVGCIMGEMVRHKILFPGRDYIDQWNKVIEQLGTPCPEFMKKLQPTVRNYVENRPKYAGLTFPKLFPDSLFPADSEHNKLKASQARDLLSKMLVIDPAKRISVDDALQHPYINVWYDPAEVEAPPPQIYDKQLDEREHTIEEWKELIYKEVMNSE
T1 sequence (Q3ZCM0 1-509): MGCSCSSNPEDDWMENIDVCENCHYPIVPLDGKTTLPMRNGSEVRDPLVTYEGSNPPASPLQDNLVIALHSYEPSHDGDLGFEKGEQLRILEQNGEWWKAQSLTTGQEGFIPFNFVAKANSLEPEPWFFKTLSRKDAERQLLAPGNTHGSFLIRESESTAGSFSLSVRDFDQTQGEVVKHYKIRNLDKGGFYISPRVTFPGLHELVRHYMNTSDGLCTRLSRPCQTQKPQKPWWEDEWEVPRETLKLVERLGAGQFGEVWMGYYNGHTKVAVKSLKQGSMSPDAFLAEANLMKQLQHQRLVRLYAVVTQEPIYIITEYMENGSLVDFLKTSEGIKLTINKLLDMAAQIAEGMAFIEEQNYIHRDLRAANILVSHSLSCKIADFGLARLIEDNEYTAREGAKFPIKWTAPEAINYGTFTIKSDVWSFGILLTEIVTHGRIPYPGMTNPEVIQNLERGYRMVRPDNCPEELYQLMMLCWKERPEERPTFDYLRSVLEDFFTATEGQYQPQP

For the compound `COc1ccc(-c2ccnc(Nc3cccc(Oc4cccc([N+](=O)[O-])c4)c3)n2)c(OC)c1OC` [II-25], the Ki in assay [1] and in assay [2] was < 0.1 µM each time.

Consider `COc1ccc(Nc2nccc(-c3ccc(OC)c(OC)c3OC)n2)cc1[N+](=O)[O-]` [II-71], for which the Ki on CDK-2/Cyclin A is > 5 µM; in assay [1] it was > 1 µM; in assay [2] it was 0.1 to 1 µM.

For `COc1ccc(Nc2nccc(-c3ccc(OC)c(OC)c3OC)n2)cc1O` [II-70], the Ki is > 5 µM on CDK-2/Cyclin A, 0.1 to 1 µM in assay [1] and 0.1 to 1 µM in assay [2].

Regarding `COc1ccc(-c2ccnc(Nc3cccc(Oc4cccc(N)c4)c3)n2)c(OC)c1OC` [II-26], the Ki in assay [1] and in assay [2] was < 0.1 µM in each case.

On to `COc1cccc(Nc2ncnc(Nc3nccc(-c4ccc(OC)c(OC)c4OC)n3)n2)c1` [II-33], for which the Ki (on activated JNK3; in assay [1]; in assay [2]) was > 1 µM throughout.

For the compound `CCOc1ccc(Oc2cc(Nc3nccc(-c4ccc(OC)c(OC)c4OC)n3)ccc2OC)cc1` [II-76], the Ki on CDK-2/Cyclin A was > 5 µM; in assay [1] it was 0.1 to 1 µM; in assay [2], < 0.1 µM.

Consider `COc1cc(-c2ccnc(Nc3ccc(S(N)(=O)=O)cc3)n2)cc(OC)c1OC` [Compound I-66], for which the Ki on activated JNK3 was < 0.1 µM; on CDK-2/Cyclin A, < 2 µM; in assay [1], < 0.1 µM. In assay [2] (at a 5 μM inhibitor concentration), the “Activity in the Lck Inhibition Assay (percent inhibition rating D-F)” value is “E (percent inhibition of between 24% and 66%)”.

Regarding `COc1ccc(Nc2nccc(-c3ccc(OC)c(OC)c3OC)n2)cc1N` [II-72], the figures for the Ki (on CDK-2/Cyclin A; in assay [1]; in assay [2]) were > 5 µM, > 1 µM and > 1 µM, respectively.

Consider `COc1cc(-c2ccnc(Nc3ccc(Cl)cc3)n2)cc(OC)c1OC` [Compound I-9], for which the Ki is < 0.1 µM on activated JNK3, > 5 µM at CDK-2/Cyclin A and 0.1 to 1 µM in assay [1].

Turning to `COc1ccc(-c2ccnc(Nc3ncnc(Nc4ccccc4)n3)n2)c(OC)c1OC` [II-32], the figures for the Ki (on activated JNK3; in assay [1]; in assay [2]) were < 0.1 µM, 0.1 to 1 µM and > 1 µM, respectively.

`COc1ccc(-c2ccccc2)cc1Nc1nccc(-c2ccc(OC)c(OC)c2OC)n1` [II-48]: the Ki on CDK-2/Cyclin A was > 5 µM; in assay [1] it was 0.1 to 1 µM; in assay [2], 0.1 to 1 µM.

Turning to `COc1cc(-c2ccnc(Nc3nc(C)cs3)n2)cc(OC)c1OC` [Compound I-10], the Ki on activated JNK3 was 0.1 to 1 µM; at CDK-2/Cyclin A, > 5 µM; in assay [1], 0.1 to 1 µM.

As for `COc1c(-c2ccnc(Nc3cccc(OCc4ccccc4)c3)n2)ccc2c1OCCO2` [II-18], the Ki in assay [1] and in assay [2] was > 1 µM in each case.

In the case of `COc1cccc(Oc2cc(Nc3nccc(-c4ccc(OC)c(OC)c4OC)n3)ccc2OC)c1` [II-75], the Ki on CDK-2/Cyclin A is > 5 µM; in assay [1] it was < 0.1 µM; in assay [2] it was < 0.1 µM.

As to `COc1ccc(Nc2nccc(-c3ccc(OC)c(OC)c3OC)n2)cc1Oc1cccc(Cl)c1` [II-74], the Ki is > 5 µM on CDK-2/Cyclin A, < 0.1 µM in assay [1] and < 0.1 µM in assay [2].

As to `COc1cc(-c2ccnc(Nc3nc4ccccc4[nH]3)n2)cc(OC)c1OC` [Compound I-65], the “Activity in the JNK3 Inhibition Assay (percent inhibition rating D-F)” value at activated JNK3 (at a 2 μM inhibitor concentration) was “D (percent inhibition less than or equal to 33%)”. For the same compound, the Ki is > 5 µM at CDK-2/Cyclin A and < 0.1 µM in assay [1].

With `COc1ccc(-c2ccnc(Nc3cc(-c4cccc(N)c4)ccc3C)n2)c(OC)c1OC` [II-46], the figures for the Ki (on CDK-2/Cyclin A; in assay [1]; in assay [2]) were > 5 µM, > 1 µM and 0.1 to 1 µM, respectively.

For the compound `COc1ccc(-c2ccnc(Nc3cc(-c4cccc(O)c4)ccc3C)n2)c(OC)c1OC` [II-47], the Ki on CDK-2/Cyclin A is > 5 µM; in assay [1], 0.1 to 1 µM; in assay [2], 0.1 to 1 µM.

With `COc1ccc(-c2ccc(C)c(Nc3nccc(-c4ccc(OC)c(OC)c4OC)n3)c2)cc1` [II-44], the results for the Ki (at CDK-2/Cyclin A; in assay [1]; in assay [2]) were > 5 µM, > 1 µM and 0.1 to 1 µM, respectively.

In the case of `COc1cc(-c2ccnc(Nc3cccc(Cl)c3)n2)cc(OC)c1OCCN1CCOCC1` [Compound I-39, (3-Chlorophenyl)-(4[3,5-dimethoxy-4-(2-morpholin-4-yl-ethoxy)phenyl]pyrimidin-2-yl)-amine], the Ki on activated JNK3 is < 0.1 µM; on CDK-2/Cyclin A, > 5 µM; in assay [1] it was 0.1 to 1 µM.

Take `COc1c(Cl)cc(-c2ccnc(Nc3cccc(Cl)c3)n2)cc1Cl` [Compound I-41]: the Ki on activated JNK3 was 0.1 to 1 µM; at CDK-2/Cyclin A it was > 5 µM; in assay [1], 0.1 to 1 µM.

Take `COc1c(Br)cc(-c2ccnc(Nc3cccc(Cl)c3)n2)cc1Br` [Compound I-43]: the Ki is 0.1 to 1 µM on activated JNK3, > 5 µM at CDK-2/Cyclin A and 0.1 to 1 µM in assay [1].

On to `COc1c(C)cc(-c2ccnc(Nc3cccc(Cl)c3)n2)cc1C` [Compound I-42], for which the Ki was < 0.1 µM at activated JNK3, > 5 µM at CDK-2/Cyclin A and > 1 µM in assay [1].

As for `COc1ccc(Oc2cc(Nc3nccc(-c4ccc(OC)c(OC)c4OC)n3)ccc2OC)cc1` [II-73], the values for the Ki (at CDK-2/Cyclin A; in assay [1]; in assay [2]) were > 5 µM, < 0.1 µM and < 0.1 µM, respectively.

Consider `COc1ccc(-c2ccnc(Nc3cc(-c4cccc(F)c4)ccc3C)n2)c(OC)c1OC` [II-45], for which the Ki is > 5 µM at CDK-2/Cyclin A, > 1 µM in assay [1] and 0.1 to 1 µM in assay [2].

Turning to `COc1cccc(Nc2nccc(-c3cc(Cl)c(OC)c(Cl)c3)n2)c1` [Compound I-51], the Ki on activated JNK3 is < 0.1 µM; at CDK-2/Cyclin A, > 5 µM; in assay [1], 0.1 to 1 µM.
